Laboratory results from paper PMC9411207, “Designed peptides as nanomolar cross-amyloid inhibitors acting via supramolecular nanofiber co-assembly” (Nature Communications, 2022).
Like-named read-outs stand apart in the source and are kept apart here. Square brackets hold non-standard residues; d marks the D form. Peptide text beside a SMILES is read from it. NMeF = CN[C@@H](Cc1ccccc1)C(=O)O; NMeL = CN[C@@H](CC(C)C)C(=O)O; NMeV = CN[C@H](C(=O)O)C(C)C; Nle = CCCC[C@H](N)C(=O)O

How the values were obtained:
[1] = molecular target: T1, N-terminal fluorescein-labeled IAPP (Homo sapiens, UniProt P10997); experiment: Fluorescence spectroscopic titration of Fluos-IAPP with ACMs; type: binding
T1 construct: made in house; host or cells: chemical synthesis (Fmoc-SPPS)
T1 sequence (P10997 34-70 limits assumed): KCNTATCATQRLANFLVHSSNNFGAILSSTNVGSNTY
Description: (§1) Fluorescence spectroscopic studies were performed with a Jasco FP-6500 fluorescence spectrophotometer (software: Spectra Manager V1.54.03 (Build 1)) using previously established protocols[12],[20],[25],[26],[32]. Briefly, excitation was at 492 nm and spectra were measured between 500 and 600 nm. All titrations were performed in freshly made solutions of synthetic N-terminal fluorescently-labeled peptide (5 nM) and various amounts of unlabeled peptide in 10 mM sodium phosphate buffer, pH 7.4 (1% HFIP) within 2–5 min following solution preparation as described in refs. [20], [25], [26]. Under these experimental conditions, freshly made solutions of Fluos-IAPP and FITC-Aβ42 (5 nM) consist mostly of monomers[25],[26],[32] and the same was found for Fluos-ACMs (5 nM) (e.g., Supplementary Fig. 5e). Apparent binding affinities (app. KDs) were estimated by using 1/1 binding models (software: OriginPro 2016G, Origin 2021, and GraFit (v.5)) as described in refs. [20], [25], [26], [32]. However, due to the high self-assembly propensities of involved peptides, more complex models might also apply. Determined app. KDs are means (±SD) from three binding curves derived from three independent titration assays.

[2] = molecular target: T2, N-terminal FITC-labeled Aβ42 (Homo sapiens, UniProt P05067); experiment: Fluorescence spectroscopic titration of FITC-Aβ42 with ACMs; type: binding
T2 construct: the 40(42)-residue peptide Aβ40(42); purchased Bachem
Description: as §1

RIN5fm cells = experiment: MTT reduction assay: effects of peptides on formation of cell-damaging IAPP assemblies (incl. IC50 titrations); type: cell-based, rat; conditions: for IC50: 24 h; for effect on IAPP cytotoxicity (in words): MTT reduction in RIN5fm cells, solutions of the ThT assay
Description: Briefly, cells were cultivated and platted in 96-well plates as described in ref. [68]. Aliquots of solutions used for the ThT binding assays (see “ThT binding assays”) were diluted with cell medium at the indicated incubation time points (24 h or 7 days) and added to the cells at the indicated final concentrations. Following incubation with the cells for ~20 h (37 °C, humidified atmosphere, 5% CO2), cell damage was assessed by measuring cellular MTT reduction as described[32],[68]. IC50 values were determined as described[20],[21],[32].

PC12 cells = experiment: MTT reduction assay: cytotoxicity of preformed (TAMRA-)Aβ42 oligomers with or without Nle3-VF; type: cell-based; conditions: TAMRA-oAb42 (2 h); mean, n = 4
Description: Preformed (TAMRA-)oAβ42 and their mixtures with Nle3-VF were then incubated for an additional 2 h (37 °C, shaking 500 rpm; conditions as for the ThT binding assay). Incubation with the cells and the MTT reduction assay were performed as above. Statistical analysis (Supplementary Fig. 27d) was performed by one-way ANOVA and Bonferroni (software: OriginPro 2021).

[3] = SF 6, Mean values of the 3 curves, read-out: App. Kd
[4] = titration of Fluos-IAPP (5 nM; pH 7.4, 10 mM sodium phosphate, 1% HFIP) with ACMs, 1/1 binding model, means (±SD) from three binding curves
[5] = Table 2, mean values of the 3 curves, read-out: App. Kd
[6] = app. KD (±SD) of ACM/Aβ42 interactions, titration of FITC-Aβ42 (5 nM; pH 7.4) with ACMs, means (±SD) from three binding curves

T2 sequence (P05067 672-713 limits assumed): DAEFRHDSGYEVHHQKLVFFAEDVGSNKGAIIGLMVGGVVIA

| Kd [1, 3] | Kd [1, 4] | Kd [2, 5] | Kd [2, 6] | Kd ([1]; Fig. 2a right panel, mean values of the 3 curves, read-out: App. Kd) | Kd ([2]; fluorescence titration, emission at 519 nm, Mean values of the 3 curves, read-out: App. Kd) | Compound | IC50 (RIN5fm cells) | effect on IAPP cytotoxicity (in words) (RIN5fm cells) | Kd [1] | MTT reduction (% control) (PC12 cells) |
| --- | --- | --- | --- | --- | --- | --- | --- | --- | --- | --- |
| 15 nM | 15 nM | 161 nM | 161 nM | – | – | CCCC[C@H](NC(=O)[C@H](CC(C)C)NC(=O)CNC(=O)[C@@H](NC(=O)[C@@H](NC(=O)[C@H](C)NC(=O)CNC(=O)[C@H](CCCCN)NC(=O)[C@H](CC(N)=O)NC(=O)[C@H](Cc1ccccc1)NC(=O)[C@H](Cc1ccccc1)NC(=O)[C@H](Cc1ccccc1)NC(=O)[C@H](CC(=O)O)NC(=O)[C@H](CCC(=O)O)NC(=O)[C@H](C)NC(=O)[C@H](Cc1ccccc1)N(C)C(=O)[C@H](Cc1ccccc1)NC(=O)[C@H](C(C)C)N(C)C(=O)[C@H](CC(C)C)NC(=O)[C@H](CCCCN)NC(=O)[C@@H](N)CCC(N)=O)[C@@H](C)CC)[C@@H](C)CC)C(=O)N[C@H](C(=O)NCC(=O)NCC(=O)N[C@H](C(=O)N[C@H](C(=O)O)C(C)C)C(C)C)C(C)C [F3-VF] (H-QKL[NMeV]F[NMeF]AEDFFFNKGAIIGL[Nle]VGGVV-OH) | 78.5 nM | – | – | – |
| 143 nM | – | 2.64 nM | – | – | – | CCCC[C@H](NC(=O)[C@H](CC(C)C)NC(=O)CNC(=O)[C@@H](NC(=O)[C@@H](NC(=O)[C@H](C)NC(=O)CNC(=O)[C@H](CCCCN)NC(=O)[C@H](CC(N)=O)NC(=O)[C@H](CC(C)C)NC(=O)[C@H](CC(C)C)NC(=O)[C@H](CC(C)C)NC(=O)[C@H](CC(=O)O)NC(=O)[C@H](CCC(=O)O)NC(=O)[C@H](C)NC(=O)[C@H](Cc1ccccc1)NC(=O)[C@H](Cc1ccccc1)N(C)C(=O)[C@@H](NC(=O)[C@H](CC(C)C)N(C)C(=O)[C@H](CCCCN)NC(=O)[C@@H](N)CCC(N)=O)C(C)C)[C@@H](C)CC)[C@@H](C)CC)C(=O)N[C@H](C(=O)NCC(=O)NCC(=O)N[C@H](C(=O)N[C@H](C(=O)O)C(C)C)C(C)C)C(C)C [L3-LF] (H-QK[NMeL]V[NMeF]FAEDLLLNKGAIIGL[Nle]VGGVV-OH) | 133 nM | fully suppressed | – | – |
| – | – | – | 14.5 nM | 69.5 nM | 14.5 nM | CCCC[C@H](NC(=O)[C@H](CC(=O)O)NC(=O)[C@H](CCC(=O)O)NC(=O)[C@H](C)NC(=O)[C@H](Cc1ccccc1)N(C)C(=O)[C@H](Cc1ccccc1)NC(=O)[C@H](C(C)C)N(C)C(=O)[C@H](CC(C)C)NC(=O)[C@H](CCCCN)NC(=O)[C@@H](N)CCC(N)=O)C(=O)N[C@@H](CCCC)C(=O)N[C@@H](CCCC)C(=O)N[C@@H](CC(N)=O)C(=O)N[C@@H](CCCCN)C(=O)NCC(=O)N[C@@H](C)C(=O)N[C@H](C(=O)N[C@H](C(=O)NCC(=O)N[C@@H](CC(C)C)C(=O)N[C@@H](CCCC)C(=O)N[C@H](C(=O)NCC(=O)NCC(=O)N[C@H](C(=O)N[C@H](C(=O)O)C(C)C)C(C)C)C(C)C)[C@@H](C)CC)[C@@H](C)CC [Nle3-VF] (H-QKL[NMeV]F[NMeF]AED[Nle][Nle][Nle]NKGAIIGL[Nle]VGGVV-OH) | 65 nM | fully suppressed | – | – |
| – | – | – | – | – | – | TAMRA-oAb42 | – | – | – | 66.7213 % control |
| 77.3 nM | 77.3 nM | 38 nM | 38 nM | – | – | CCCC[C@H](NC(=O)[C@H](CC(C)C)NC(=O)CNC(=O)[C@@H](NC(=O)[C@@H](NC(=O)[C@H](C)NC(=O)CNC(=O)[C@H](CCCCN)NC(=O)[C@H](CC(N)=O)NC(=O)[C@H](CC(C)C)NC(=O)[C@H](CC(C)C)NC(=O)[C@H](CC(C)C)NC(=O)[C@H](CC(=O)O)NC(=O)[C@H](CCC(=O)O)NC(=O)[C@H](C)NC(=O)[C@H](Cc1ccccc1)N(C)C(=O)[C@H](Cc1ccccc1)NC(=O)[C@H](C(C)C)N(C)C(=O)[C@H](CC(C)C)NC(=O)[C@H](CCCCN)NC(=O)[C@@H](N)CCC(N)=O)[C@@H](C)CC)[C@@H](C)CC)C(=O)N[C@H](C(=O)NCC(=O)NCC(=O)N[C@H](C(=O)N[C@H](C(=O)O)C(C)C)C(C)C)C(C)C [L3-VF] (H-QKL[NMeV]F[NMeF]AEDLLLNKGAIIGL[Nle]VGGVV-OH) | 112 nM | – | – | – |
| 37.6 nM | 37.6 nM | 431 nM | 431 nM | – | – | CCCC[C@H](NC(=O)[C@H](CC(C)C)NC(=O)CNC(=O)[C@@H](NC(=O)[C@@H](NC(=O)[C@H](C)NC(=O)CNC(=O)[C@H](CCCCN)NC(=O)[C@H](CC(N)=O)NC(=O)[C@H](Cc1ccccc1)NC(=O)[C@H](Cc1ccccc1)NC(=O)[C@H](Cc1ccccc1)NC(=O)[C@H](CC(=O)O)NC(=O)[C@H](CCC(=O)O)NC(=O)[C@H](C)NC(=O)[C@H](Cc1ccccc1)NC(=O)[C@H](Cc1ccccc1)N(C)C(=O)[C@@H](NC(=O)[C@H](CC(C)C)N(C)C(=O)[C@H](CCCCN)NC(=O)[C@@H](N)CCC(N)=O)C(C)C)[C@@H](C)CC)[C@@H](C)CC)C(=O)N[C@H](C(=O)NCC(=O)NCC(=O)N[C@H](C(=O)N[C@H](C(=O)O)C(C)C)C(C)C)C(C)C [F3-LF] (H-QK[NMeL]V[NMeF]FAEDFFFNKGAIIGL[Nle]VGGVV-OH) | 41.7 nM | – | – | – |

| Compound | Kd [1, 3] | Kd [1, 4] | Kd [2, 5] | Kd [2, 6] | Kd ([1]; Fig. 2a right panel, mean values of the 3 curves, read-out: App. Kd) | Kd ([2]; fluorescence titration, emission at 519 nm, Mean values of the 3 curves, read-out: App. Kd) | IC50 (RIN5fm cells) | effect on IAPP cytotoxicity (in words) (RIN5fm cells) | Kd [1] | MTT reduction (% control) (PC12 cells) |
| --- | --- | --- | --- | --- | --- | --- | --- | --- | --- | --- |
| CCCC[C@H](NC(=O)[C@H](CC(=O)O)NC(=O)[C@H](CCC(=O)O)NC(=O)[C@H](C)NC(=O)[C@H](Cc1ccccc1)NC(=O)[C@H](Cc1ccccc1)N(C)C(=O)[C@@H](NC(=O)[C@H](CC(C)C)N(C)C(=O)[C@H](CCCCN)NC(=O)[C@@H](N)CCC(N)=O)C(C)C)C(=O)N[C@@H](CCCC)C(=O)N[C@@H](CCCC)C(=O)N[C@@H](CC(N)=O)C(=O)N[C@@H](CCCCN)C(=O)NCC(=O)N[C@@H](C)C(=O)N[C@H](C(=O)N[C@H](C(=O)NCC(=O)N[C@@H](CC(C)C)C(=O)N[C@@H](CCCC)C(=O)N[C@H](C(=O)NCC(=O)NCC(=O)N[C@H](C(=O)N[C@H](C(=O)O)C(C)C)C(C)C)C(C)C)[C@@H](C)CC)[C@@H](C)CC [Nle3-LF] (H-QK[NMeL]V[NMeF]FAED[Nle][Nle][Nle]NKGAIIGL[Nle]VGGVV-OH) | 55.4 nM | – | 11.1 nM | 11.1 nM | – | – | 82.1 nM | fully suppressed | 55.4 nM | – |
